According to ChEMBL document CHEMBL1158402, “Homology modeling of MCH1 receptor and validation by docking/scoring and protein-aligned CoMFA” (Eur J Med Chem, 2009):

biological target: Melanin-concentrating hormone receptor 1 (Homo sapiens, UniProt Q99705); experiment: Binding affinity to MCH1 receptor
Sequence (Q99705 whole entry): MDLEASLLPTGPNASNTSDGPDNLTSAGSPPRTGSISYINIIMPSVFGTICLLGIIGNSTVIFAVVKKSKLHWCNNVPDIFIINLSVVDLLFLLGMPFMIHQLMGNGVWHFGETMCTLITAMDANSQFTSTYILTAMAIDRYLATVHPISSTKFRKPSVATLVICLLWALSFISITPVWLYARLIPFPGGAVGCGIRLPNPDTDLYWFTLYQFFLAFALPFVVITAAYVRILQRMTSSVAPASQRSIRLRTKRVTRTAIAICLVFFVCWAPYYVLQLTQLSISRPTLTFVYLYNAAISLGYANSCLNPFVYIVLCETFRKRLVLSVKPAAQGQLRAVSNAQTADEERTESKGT

| Ki | Structure (SMILES) |
| --- | --- |
| 1.41 µM | Cc1ccc(CN2CCC(=Cc3ccc(C(=O)N[C@H](C)c4ccc(Br)cc4)cc3)CC2)c2ccccc12 |
| 3.47 µM | C[C@@H](NC(=O)c1ccc(CC2CCN(Cc3ccc4c(c3)OCO4)CC2)cc1)c1ccccc1 |
| 0.266 µM | COc1cccc([C@@H](C)NC(=O)c2ccc(CC3CCN(Cc4ccc5c(c4)OCO5)CC3)cc2)c1 |
| 0.108 µM | C[C@@H](NC(=O)c1ccc(CC2CCN(Cc3ccc4c(c3)OCO4)CC2)cc1)c1ccc(Cl)cc1 |
| 0.795 µM | CC[C@@H](NC(=O)c1ccc(CC2CCN(Cc3ccc4c(c3)OC(F)(F)O4)CC2)cc1)c1ccc(I)cc1 |
| 0.03 µM | CC[C@@H](NC(=O)c1ccc(CC2CCN(Cc3ccc4cncnc4c3)CC2)cc1)c1ccc(I)cc1 |
| 0.005 µM | CC[C@@H](NC(=O)c1ccc(CC2CCN(Cc3ccc4cccnc4c3)CC2)cc1)c1ccc(I)cc1 |
| 15.6 µM | C[C@@H](NC(=O)c1ccc(C=C2CCN(Cc3ccco3)CC2)cc1)c1ccc(Br)cc1 |
| 4.68 µM | O=C(N[C@@H]1CCc2ccccc21)c1ccc(CC2CCN(Cc3ccc4c(c3)OCO4)CC2)cc1 |
| 2.06 µM | COc1ccccc1[C@@H](C)NC(=O)c1ccc(CC2CCN(Cc3ccc4c(c3)OCO4)CC2)cc1 |
| 0.051 µM | C[C@@H](NC(=O)c1ccc(CC2CCN(Cc3ccc4c(c3)OCO4)CC2)cc1)c1ccc(I)cc1 |
| 1.08 µM | Cc1ccc([C@@H](C)NC(=O)c2ccc(CC3CCN(Cc4ccc5c(c4)OCO5)CC3)cc2)cc1 |
| 0.312 µM | CC[C@@H](NC(=O)c1ccc(CC2CCN(Cc3ccc4ccccc4n3)CC2)cc1)c1ccc(I)cc1 |
| 2.58 µM | C[C@@H](NC(=O)c1ccc(C=C2CCN(Cc3ccccc3)CC2)cc1)c1ccc(Br)cc1 |
| 11.8 µM | C[C@@H](NC(=O)c1ccc(C=C2CCN(CC3CCCCC3)CC2)cc1)c1ccc(Br)cc1 |
| 4.13 µM | CC(NC(=O)c1ccc(CC2CCN(Cc3ccc4c(c3)OCO4)CC2)cc1)c1ccccc1 (stereo not drawn) |
| 9.33 µM | Cc1ccccc1CNC(=O)c1ccc(CC2CCN(Cc3ccc4c(c3)OCO4)CC2)cc1 |
| 0.191 µM | CCC[C@@H](NC(=O)c1ccc(CC2CCN(Cc3ccc4c(c3)OCO4)CC2)cc1)c1ccc(I)cc1 |
| 0.04 µM | CC[C@@H](NC(=O)c1ccc(CC2CCN(Cc3ccc4nccnc4c3)CC2)cc1)c1ccc(I)cc1 |
| 1.95 µM | C[C@@H](NC(=O)c1ccc(CN2CCN(Cc3ccc4c(c3)OCO4)CC2)cc1)c1ccc(Br)cc1 |
| 4.56 µM | CC1CN(Cc2ccc3c(c2)OCO3)CCN1Cc1ccc(C(=O)N[C@@H](C)c2ccc(Br)cc2)cc1 (stereo partly drawn) |
| 3.57 µM | C[C@@H](NC(=O)c1ccc(CC2CCN(Cc3ccc4c(c3)OCO4)CC2)cc1)C1CCCCC1 |
| 5.11 µM | C[C@@H](NC(=O)c1ccc(C=C2CCN(Cc3ccc(-c4ccccc4)cc3)CC2)cc1)c1ccc(Br)cc1 |
| 2.33 µM | CC(c1ccc(C(=O)N[C@@H](C)c2ccc(Br)cc2)cc1)N1CCN(Cc2ccc3c(c2)OCO3)CC1 (stereo partly drawn) |
| 0.149 µM | COc1ccc(CN2CCC(=Cc3ccc(C(=O)N[C@H](C)c4ccc(Br)cc4)cc3)CC2)cc1 |
| 0.133 µM | O=C(Cc1ccc2c(c1)CCO2)c1ccc(CC2CCN(Cc3ccc4c(c3)OCO4)CC2)cc1 |
| 0.02 µM | CC[C@@H](NC(=O)c1ccc(CC2CCN(Cc3ccc4c(c3)OCO4)CC2)cc1)c1ccc(I)cc1 |
| 5.64 µM | O=C(NCc1ccccc1)c1ccc(CC2CCN(Cc3ccc4c(c3)OCO4)CC2)cc1 |
